Assay results published in patent US20090298813A1, “USE OF NEUROPROTECTIVE COMPOUNDS IN OBTAINING MEDICAMENTS INTENDED FOR THE TREATMENT OF NEURODEGENERATING DISEASES” (LES LABORATOIRES SERVIER, priority 2007, published 2009).

What was measured:
glial cells = assay: Protection from apoptosis caused in vitro in cultures of glial cells (OGD followed by reperfusion); format: cell-based, Sprague Dawley rats; details: 10 μM throughout OGD (3 h) and reperfusion (18 h); relative to control cultures subjected to OGD and reperfusion
Method: A study was carried out to determine if the compounds of the invention protect cultures of glial cells from the apoptosis brought about by oxygen and glucose deprivation (OGD) followed by reperfusion.
Glial cells are isolated from the brains of newborn Sprague Dawley rats and cultured. They are subjected to OGD for 3 hours by being placed in a glucose-free medium under anaerobic conditions in an incubator (5% CO2, 95% N2).
Reperfusion is carried out by returning the cultures for 18 hours to the normal medium [Dulbecco's modified Eagle […] (DMEM)], to which 10% fetal calf serum, 2 mM glutamine and 50 μg/ml of gentamicin have been added.
At the end of the OGD period, the adenosine triphosphate (ATP) content of the cultures is measured in order to assess the degree of ischaemia, using the BIOLUMINESCENT kit (luciferase luminescence).
The degree of apoptosis is quantified by counting the astrocyte nuclei labelled with the DNA-specific HOECHST 33258 fluorescent dye.
The compounds of the invention are added to the medium at a concentration of 10 μM throughout the OGD and reperfusion period.
The results are expressed as the percentage reduction in cell death relative to control cultures subjected to ischaemia by means of OGD and reperfusion.

[1] = system: mixed (neurons and glia) primary embryonic mesencephalic cultures; assay: Neuroprotective and neurotrophic effects in an in vitro model of neurodegeneration (epoxomicin); details: for increase in neuronal survival with respect to their control (neuroprotective): at 100 μM, in the presence of epoxomicin (50 nM), 48 hours
newborn mice = assay: Protection from neurodegeneration caused by ibotenate in newborn mice; format: in vivo, mouse; details: 20 mg/kg i.p.; for Reduction in the size of lesions relative to the controls, cortex / Reduction in the size of lesions relative to the controls, white matter: simultaneous injection at 0 h
Method: Ibotenate, an agonist of N-methyl-D-aspartate (NMDA) receptors, when administered by the intracerebral route to the newborn mouse, brings about lesions of excitotoxic origin in the neocortex and the underlying white matter.
The ibotenate injection is performed in newborn mice aged 5 days (P5). The compounds of the invention are administered by the i.p. route at a dose of 20 mg/kg [either simultaneously] (P5), [or 8, 24 or 48 hours after induction of the lesions]. […] Cell markers were applied to the brain slices of animals sacrificed at various times after administration of ibotenate and the compound of the invention: (1) cleaved caspase-3, an apoptosis marker; (2) isolectin, a microglial activation marker; (3) glial fibrillary acidic protein (GFAP), a marker of astrogliosis.

mouse striatum = assay: Glial reaction in a 6-OHDA model of Parkinson's disease in the mouse; format: in vivo; details: for reduction of the area occupied by the astrocytes (GFAP) in the striatum: single i.p. injection of 20 mg/kg 10 minutes after 6-OHDA, assessed at 7 days, relative to control group (6-OHDA and solvent); for microglial reactivity: single i.p. injection of 20 mg/kg
Method: Unilateral injection of 6-OHDA into the mouse striatum using a micro-syringe (0.5 μl of a solution containing 8 μg/μl) causes, from the 3rd day, degeneration of the TH-positive neurons of the striatum, which is accompanied, from the 7th day, by neuronal loss also in the substantia nigra, in accordance with that which is observed. in Parkinson's disease in humans.
The compounds of the invention are administered by the intraperitoneal route in a single injection of 20 mg/kg 10 minutes after the intracerebral injection of 6-OHDA. One group of mice is sacrificed at 3 days, the other at 7 days.

[2] = system: dopaminergic neurons of primary rat mesencephalic cultures; assay: Neuroprotective effects and stimulation of the catecholaminergic phenotype in vitro (spontaneous death of dopaminergic neurons); format: cell-based
Method: The study is carried out in an in vitro model of primary rat mesencephalic cultures, wherein death of the dopaminergic neurons develops spontaneously and selectively when the cells mature. The culture conditions have been defined in detail in various publications (Douhou et al., J. of Neurochemistry, (2001), 78, 163-174). The culture media are changed daily and, under these conditions, the dopaminergic neurons, but not the other neurons such as GABA-ergic neurons, degenerate spontaneously. Natural trophic factors of the body such as GDNF (glial cell derived neurotrophic factor) have shown a protective effect on the dopaminergic neurons in this model.
The effects of Examples 1 and 12 were tested at 3 concentrations. The effect is analysed by measuring the rate of tritiated dopamine uptake and the number of surviving neurons by labelling the tyrosine hydroxylase with a fluorescent antibody.

[3] = deferred injection 8 h after ibotenate, sacrifice at 120 h
[4] = deferred injection 24 h after ibotenate, sacrifice at 120 h
[5] = deferred injection 48 h after ibotenate, sacrifice at 120 h
[6] = epoxomicin 50 nM, after 48 hours

O=C1NN2c3ccccc3C[C@H]2[C@@H]2NCCC[C@H]12 (racemic) [Example 6, (4aSR,11aSR,11bRS)-1,2,3,4,4a,11,11a,11b-Octahydro-1,6,6a-triaza-benzo[a]fluoren-5-one]
Reduction in cell death, % reduction (glial cells): 22%

C=CCN1CCC[C@@H]2C(=O)N3c4ccccc4C[C@@H]3[C@H]21 (racemic) [Example 11, (4aSR,11aRS,11bSR)-1-Allyl-1,2,3,4,4a,11,11a,11b-octahydropyrido[2′,3′:3,4]pyrrolo-[1,2-a]indol-5-one]
Reduction in cell death, % reduction (glial cells): 44%

O=C1NC(=O)N2c3ccccc3[C@@H]3CCN4CCC[C@@H]1[C@@H]4[C@@H]32 (single isomer, unassigned) [Example 7, (5aS,12aR,12bR,12cR)- or (5aR,12aS,12bS,12cS)-2,3,5a,12a,12b,12c-Hexahydro-1H,4H-3a,9b,11-triazabenzo[a]naphtho[2,1,8-cde]azulene-10,12(5H,11H)-dione (enantiomer α)]
Reduction in cell death, % reduction (glial cells): 35%

O=C1NC(=O)N2c3ccccc3C3CCN4CCCC1C4C32 (single isomer, unassigned) [Example 8, (5aS,12aR,12bR,12cR)- or (5aR,12aS,12bS,12cS)-2,3,5a,12a,12b,12c-Hexahydro-1H,4H-3a,9b,11-triazabenzo[a]naphtho[2,1,8-cde]azulene-10,12(5H,11H)-dione (enantiomer ,β)]
increase in neuronal survival with respect to their control (neuroprotective) [1]: ~75%

Cl.O=C1NN2c3ccc(Cl)cc3C3CCN4CCCC1C4C32 (single isomer, unassigned; (+)) [Example 1, (+) (2RS,7SR),(3RS,16RS)-10-Chloro-15-oxo-2,7,14,15-tetrahydro-14-aza-20,21-dinoreburnameninium chloride]
Reduction in cell death, % reduction (glial cells): 70%
Reparatory effect: reduction in the size of lesions relative to the controls, cortex (newborn mice; [3]): 57%
Reparatory effect: reduction in the size of lesions relative to the controls, white matter (newborn mice; [3]): 59%
Reparatory effect: reduction in the size of lesions relative to the controls, cortex (newborn mice; [4]): 39%
Reparatory effect: reduction in the size of lesions relative to the controls, white matter (newborn mice; [4]): 61%
Reparatory effect: reduction in the size of lesions relative to the controls, cortex (newborn mice; [5]): 10%
Reparatory effect: reduction in the size of lesions relative to the controls, white matter (newborn mice; [5]): 26%
Reduction in the intensity of markers relative to the controls, GFAP (astrogliosis) (newborn mice; sacrifice at 8 h): 24%
Reduction in the intensity of markers relative to the controls, Isolectin (microglial activation) (newborn mice; sacrifice at 8 h): 39%
Reduction in the intensity of markers relative to the controls, Cleaved caspase-3 (apoptosis) (newborn mice; sacrifice at 24 h): 66%
Reduction in the intensity of markers relative to the controls, Isolectin (microglial activation) (newborn mice; sacrifice at 24 h): 39%
Reduction in the intensity of markers relative to the controls, Cleaved caspase-3 (apoptosis) (newborn mice; sacrifice at 48 h): 71%
Reduction in the intensity of markers relative to the controls, GFAP (astrogliosis) (newborn mice; sacrifice at 48 h): 25%
Reduction in the intensity of markers relative to the controls, Isolectin (microglial activation) (newborn mice; sacrifice at 48 h): 35%
Reduction in the intensity of markers relative to the controls, GFAP (astrogliosis) (newborn mice; sacrifice at 72 h): 31%
Reduction in the intensity of markers relative to the controls, Isolectin (microglial activation) (newborn mice; sacrifice at 72 h): 35%
Reduction in the intensity of markers relative to the controls, GFAP (astrogliosis) (newborn mice; sacrifice at 120 h): 39%
Reduction in the intensity of markers relative to the controls, Isolectin (microglial activation) (newborn mice; sacrifice at 120 h): 41%
Reduction in the size of lesions relative to the controls, cortex (newborn mice; sacrifice at 8 h): 39%
Reduction in the size of lesions relative to the controls, white matter (newborn mice; sacrifice at 8 h): 66%
Reduction in the size of lesions relative to the controls, cortex (newborn mice; sacrifice at 24 h): 40%
Reduction in the size of lesions relative to the controls, white matter (newborn mice; sacrifice at 24 h): 61%
Reduction in the size of lesions relative to the controls, cortex (newborn mice; sacrifice at 48 h): 44%
Reduction in the size of lesions relative to the controls, white matter (newborn mice; sacrifice at 48 h): 52%
Reduction in the size of lesions relative to the controls, cortex (newborn mice; sacrifice at 72 h): 52%
Reduction in the size of lesions relative to the controls, white matter (newborn mice; sacrifice at 72 h): 56%
Reduction in the size of lesions relative to the controls, cortex (newborn mice; sacrifice at 120 h): 46%
Reduction in the size of lesions relative to the controls, white matter (newborn mice; sacrifice at 120 h): 62%
reduction of the area occupied by the astrocytes (GFAP) in the striatum (mouse striatum): 13%
cell survival (number of surviving neurons, tyrosine hydroxylase labelling) [2]: significantly increase
rate of tritiated dopamine uptake [2]: significantly increase

CN1CCN(CCN2CCC=C(C(=O)Nn3ccc4cc(Cl)ccc43)C2)CC1 [Example 3, N-(5-Chloroindol-1-yl)-1-[2-(4-methylpiperazin-1-yl)ethyl]-1,2,5,6-tetrahydropyridine-3-carboxamide]
Reduction in the intensity of markers relative to the controls, Cleaved caspase-3 (apoptosis) (newborn mice; sacrifice at 24 h): 56%
Reduction in the intensity of markers relative to the controls, Isolectin (microglial activation) (newborn mice; sacrifice at 24 h): 50%
Reduction in the intensity of markers relative to the controls, GFAP (astrogliosis) (newborn mice; sacrifice at 120 h): 44%
Reduction in the size of lesions relative to the controls, cortex (newborn mice; sacrifice at 24 h): 53%
Reduction in the size of lesions relative to the controls, white matter (newborn mice; sacrifice at 24 h): 70%
Reduction in the size of lesions relative to the controls, cortex (newborn mice; sacrifice at 120 h): 50%
Reduction in the size of lesions relative to the controls, white matter (newborn mice; sacrifice at 120 h): 56%
reduction of the area occupied by the astrocytes (GFAP) in the striatum (mouse striatum): 28%
microglial reactivity (mouse striatum; at 3 days): remains increased
microglial reactivity (mouse striatum; at 7 days): reduced

CCOC(=O)C1=CCCN(CCN2CCC=C(C(=O)Nn3ccc4ccccc43)C2)C1 [Example 4, N-(Indol-1-yl)-1-[2-[3-(ethoxycarbonyl)-1,2,5,6-tetrahydropyridin-1-yl]ethyl]-1,2,5,6-tetrahydropyridine-3-carboxamide]
Reduction in cell death, % reduction (glial cells): 60%

CN1CCN(CCN2CCC=C(C(=O)Nn3ccc4ccccc43)C2)CC1 [Example 9, N-(Indol-1-yl)-1-[2-(4-methylpiperazin-1-yl)ethyl]-1,2,5,6-tetrahydropyridine-3-carboxamide]
Reduction in cell death, % reduction (glial cells): 44%
Reduction in the size of lesions relative to the controls, cortex (newborn mice; sacrifice at 120 h): 50%
Reduction in the size of lesions relative to the controls, white matter (newborn mice; sacrifice at 120 h): 56%
EC50 ([1]; Rattus norvegicus, Neuron, 48 h, read-out: EC50 (neurotrophic)): 10.5 µM

O=C(Nn1ccc2ccccc21)C1=CCCN(CCN2CCCCC2)C1 [Example 10, N-(Indol-1-yl)-1-(2-piperidin-1-yl-ethyl)-1,2,5,6-tetrahydropyridine-3-carboxamide]
Reduction in cell death, % reduction (glial cells): 60%

O=C(Nc1cccnc1)Nn1ccc2ccccc21 [Example 12, N-(1H-Indol-1-yl)-N′-(3-pyridyl)urea]
Reduction in cell death, % reduction (glial cells): 59%
Reduction in the size of lesions relative to the controls, cortex (newborn mice; sacrifice at 120 h): 64%
Reduction in the size of lesions relative to the controls, white matter (newborn mice; sacrifice at 120 h): 58%
cell survival (number of surviving neurons, tyrosine hydroxylase labelling) [2]: significantly increase
rate of tritiated dopamine uptake [2]: significantly increase

O=C(Nc1cccnc1)NN1CCc2ccccc21 [Example 13, N-(2,3-Dihydro-1H-indol-1-yl)-N′-(3-pyridyl)urea]
Reduction in the size of lesions relative to the controls, cortex (newborn mice; sacrifice at 120 h): 28%
Reduction in the size of lesions relative to the controls, white matter (newborn mice; sacrifice at 120 h): 11%
increase in neuronal survival with respect to their control (neuroprotective) [1]: ~145%

CC[C@H](C)[C@H](NC(=O)[C@H]([C@@H](C)CC)N(C)C(C)=O)C(=O)N[C@H](C(=O)N[C@@H](CC(C)C)C(=O)[C@@]1(C)CO1)[C@@H](C)O [epoxomicin, reference compound]
loss over all of the cell population relative to the cells not treated with epoxomicin [1, 6]: less than 70%
neuronal loss relative to the untreated cells [1, 6]: 82%
